Measurements published in US11236112B2 (GENFLEET THERAPEUTICS (SHANGHAI) INC., priority 2017, dated 2022).

Columns and labels:
[1] = Solubility of different salt types in biological vehicle (SGF, FeSSIF, FaSSIF), HPLC; assay type: physicochemical; conditions: 37° C.; for pH value: supernatant
Experimental: 1 ml of biological vehicle solution (FaSSIF, FeSSIF and SGF) was pipetted respectively into a 1.5-ml glass bottle, and then added to the above-mentioned solution at a gradient of 2 mg until 10 mg or the mixture was saturated. The mixture was prepared in 2 parts in parallel, and then shaken at 37° C. Samples were taken after 4 hours and 24 hours, respectively. The samples taken were centrifuged quickly, and the supernatant was measured for pH value and diluted with a diluent to a suitable multiple, and then the concentration was determined by HPLC.

[2] = High-temperature stability test (60° C., open container); assay type: physicochemical
[3] = High-humidity stability test (40° C./75% humidity, open); assay type: physicochemical
[4] = Hygroscopicity by dynamic vapor sorption (DVS); assay type: physicochemical; conditions: 25° C./80% RH
Experimental: In the present invention, the dynamic vapor sorption (DVS) is determined by using the following method: instrument model: SMS DVS Advantage dynamic vapor sorption instrument
Test condition: place 10-15 mg of sample in a DVS sample disk for testing.
The detailed DVS parameters are as follows: […]
balance: dm/dt=0.01%/min (minimum: 10 min; maximum: 180 min) drying: dry for 120 min at 0% RH
RH (%) test step range: 0%-90%-0%
The classification of hygroscopicity evaluation is as follows:
1. Experimental material: SMS DVS Advantage dynamic vapor sorption instrument
2. Experimental method: an appropriate amount of the crystal form B of the compound of formula (II) was placed in a DVS sample disk for DVS analysis.

[5] = Approximate solubility in pure water; assay type: physicochemical; conditions: thermodynamic from solid, room temperature, 2 mg sample, read-out: Approximate solubility S
Experimental: 2 mg of the sample of each compound was weighed and added to a 1.5-ml glass vial, and a certain volume of pure water was added with a pipette, and ultrasonic solubilization was performed appropriately. The study was conducted at room temperature and tested for solubilization.

[6] = molecular target: T1, TGF-βRI (Homo sapiens, UniProt P36897); assay: TGFβ-RI receptor binding activity screening in vitro (enzyme activity, IC50)
T1 sequence (P36897 34-503): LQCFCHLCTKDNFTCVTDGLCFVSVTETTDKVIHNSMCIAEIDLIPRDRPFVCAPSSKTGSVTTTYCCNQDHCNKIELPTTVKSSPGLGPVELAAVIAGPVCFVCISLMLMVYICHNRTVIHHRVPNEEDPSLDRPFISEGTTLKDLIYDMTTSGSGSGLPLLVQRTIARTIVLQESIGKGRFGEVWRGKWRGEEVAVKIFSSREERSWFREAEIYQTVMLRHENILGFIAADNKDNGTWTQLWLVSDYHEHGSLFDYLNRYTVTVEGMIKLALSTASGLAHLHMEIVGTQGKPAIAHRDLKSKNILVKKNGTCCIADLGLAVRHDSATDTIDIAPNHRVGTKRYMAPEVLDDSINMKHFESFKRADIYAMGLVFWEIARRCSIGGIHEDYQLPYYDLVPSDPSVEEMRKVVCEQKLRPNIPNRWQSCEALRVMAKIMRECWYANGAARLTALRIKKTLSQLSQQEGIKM

[7] = test system: liver cancer patients; conditions: phase 2 clinical trial, after treatment; cited from earlier work

CS(=O)(=O)O.Cc1cccc(-c2nn3c(c2-c2ccc4ncnn4c2/C=C/C(N)=O)CCC3)n1
Concentration ([1]; FaSSIF, 4 hours): 5159 µg/mL
State ([1]; FaSSIF, 4 hours): soluble
pH value ([1]; FaSSIF, 4 hours): 4.16
Concentration ([1]; FaSSIF, 24 hours): 3704 µg/mL
State ([1]; FaSSIF, 24 hours): turbid
pH value ([1]; FaSSIF, 24 hours): 3.71
Concentration ([1]; FeSSIF, 4 hours): 852 µg/mL
State ([1]; FeSSIF, 4 hours): turbid
pH value ([1]; FeSSIF, 4 hours): 4.58
Concentration ([1]; FeSSIF, 24 hours): 925 µg/mL
State ([1]; FeSSIF, 24 hours): turbid
pH value ([1]; FeSSIF, 24 hours): 4.60
Concentration ([1]; SGF, 4 hours): 5103 µg/mL
State ([1]; SGF, 4 hours): soluble
pH value ([1]; SGF, 4 hours): 2.08
Concentration ([1]; SGF, 24 hours): 5163 µg/mL
State ([1]; SGF, 24 hours): soluble
pH value ([1]; SGF, 24 hours): 2.14

Cc1cccc(-c2nn3c(c2-c2ccc4ncnn4c2/C=C/C(N)=O)CCC3)n1
Content ([2]; day 0): 99.0%
Study on crystal form ([2]; day 0): Crystal form A
Total impurities ([2]; day 0): 0.57%
Content ([2]; day 30): 97.5%
Study on crystal form ([2]; day 30): Crystal form A
Total impurities ([2]; day 30): 0.56%
Content ([2]; day 60): 100.0%
Study on crystal form ([2]; day 60): Crystal form A
Total impurities ([2]; day 60): 0.58%
Content ([2]; day 90): 99.9%
Study on crystal form ([2]; day 90): Crystal form A
Total impurities ([2]; day 90): 0.55%
Stability under high temperature conditions (conclusion) ([2]; up to 90 days): Conclusion: The high-temperature stability test shows that crystal form A of the compound of formula (I) has good stability under high temperature conditions.
Content ([3]; day 0): 99.0%
Total impurities ([3]; day 0): 0.57%
Content ([3]; day 30): 100.6%
Total impurities ([3]; day 30): 0.57%
Content ([3]; day 60): 101.1%
Total impurities ([3]; day 60): 0.58%
Content ([3]; day 90): 100.4%
Total impurities ([3]; day 90): 0.58%
Stability under high humidity conditions (conclusion) ([3]; up to 90 days): Conclusion: The high-humidity stability test shows that the crystal form A of the compound of formula (I) has good stability under high humidity conditions.

Cc1ccc(S(=O)(=O)O)cc1.Cc1cccc(-c2nn3c(c2-c2ccc4ncnn4c2/C=C/C(N)=O)CCC3)n1
Classification of hygroscopicity [4]: slightly hygroscopic
Hygroscopic weight gain ΔW [4]: 0.673%

Cc1cccc(-c2nn3c(c2-c2ccc4ncnn4c2/C=C/C(N)=O)CCC3)n1 [Compound of formula (I)]
Concentration ([1]; FaSSIF, 4 hours): 352 µg/mL
State ([1]; FaSSIF, 4 hours): turbid
pH value ([1]; FaSSIF, 4 hours): 6.45
Concentration ([1]; FaSSIF, 24 hours): 421 µg/mL
State ([1]; FaSSIF, 24 hours): turbid
pH value ([1]; FaSSIF, 24 hours): 6.42
Concentration ([1]; FeSSIF, 4 hours): 565 µg/mL
State ([1]; FeSSIF, 4 hours): turbid
pH value ([1]; FeSSIF, 4 hours): 4.97
Concentration ([1]; FeSSIF, 24 hours): 637 µg/mL
State ([1]; FeSSIF, 24 hours): turbid
pH value ([1]; FeSSIF, 24 hours): 4.95
Concentration ([1]; SGF, 4 hours): 1997 µg/mL
State ([1]; SGF, 4 hours): soluble
pH value ([1]; SGF, 4 hours): 2.37
Concentration ([1]; SGF, 24 hours): 1994 µg/mL
State ([1]; SGF, 24 hours): soluble
pH value ([1]; SGF, 24 hours): 2.43
solubility [5]: < 1.9 mg/mL
IC50 [6]: 40 nM

Cc1ccc(S(=O)(=O)O)cc1.Cc1cccc(-c2nn3c(c2-c2ccc4ncnn4c2/C=C/C(N)=O)CCC3)n1 [Compound of formula (II)]
Concentration ([1]; FaSSIF, 4 hours): 10150 µg/mL
State ([1]; FaSSIF, 4 hours): clear
pH value ([1]; FaSSIF, 4 hours): 3.15
Concentration ([1]; FaSSIF, 24 hours): 10720 µg/mL
State ([1]; FaSSIF, 24 hours): clear
pH value ([1]; FaSSIF, 24 hours): 3.13
Concentration ([1]; FeSSIF, 4 hours): 10840 µg/mL
State ([1]; FeSSIF, 4 hours): clear
pH value ([1]; FeSSIF, 4 hours): 1.89
Concentration ([1]; FeSSIF, 24 hours): 10580 µg/mL
State ([1]; FeSSIF, 24 hours): clear
pH value ([1]; FeSSIF, 24 hours): 1.87
Concentration ([1]; SGF, 4 hours): 1610 µg/mL
State ([1]; SGF, 4 hours): Suspension
pH value ([1]; SGF, 4 hours): 3.45
Concentration ([1]; SGF, 24 hours): 1470 µg/mL
State ([1]; SGF, 24 hours): Suspension
pH value ([1]; SGF, 24 hours): 4.26
solubility [5]: 49 to 98 mg/mL

Cc1cccc(-c2nn3c(c2-c2ccc4ncnn4c2/C=C/C(N)=O)CCC3)n1.Cl [Hydrochloride]
Concentration ([1]; FaSSIF, 4 hours): 4378 µg/mL
State ([1]; FaSSIF, 4 hours): soluble
pH value ([1]; FaSSIF, 4 hours): 3.96
Concentration ([1]; FaSSIF, 24 hours): 4195 µg/mL
State ([1]; FaSSIF, 24 hours): soluble
pH value ([1]; FaSSIF, 24 hours): 3.97
Concentration ([1]; FeSSIF, 4 hours): 1028 µg/mL
State ([1]; FeSSIF, 4 hours): turbid
pH value ([1]; FeSSIF, 4 hours): 4.52
Concentration ([1]; FeSSIF, 24 hours): 1065 µg/mL
State ([1]; FeSSIF, 24 hours): turbid
pH value ([1]; FeSSIF, 24 hours): 4.52
Concentration ([1]; SGF, 4 hours): 4343 µg/mL
State ([1]; SGF, 4 hours): soluble
pH value ([1]; SGF, 4 hours): 2.04
Concentration ([1]; SGF, 24 hours): 4427 µg/mL
State ([1]; SGF, 24 hours): soluble
pH value ([1]; SGF, 24 hours): 2.05

Cc1cccc(-c2nn3c(c2-c2ccnc4ccc(C(N)=O)cc24)CCC3)n1 [LY2157299, Galunisertib]
Patients with a decrease in serum alpha-fetoprotein (AFP) levels by at least 20% [7]: approximately 23%

Cc1cccc(-c2nn3c(c2-c2ccc4ncnn4c2/C=C/C(N)=O)CCC3)n1 [Sulphate]
Concentration ([1]; FaSSIF, 4 hours): 4998 µg/mL
State ([1]; FaSSIF, 4 hours): soluble
pH value ([1]; FaSSIF, 4 hours): 2.44
Concentration ([1]; FaSSIF, 24 hours): 5000 µg/mL
State ([1]; FaSSIF, 24 hours): soluble
pH value ([1]; FaSSIF, 24 hours): 2.50
Concentration ([1]; FeSSIF, 4 hours): 1530 µg/mL
State ([1]; FeSSIF, 4 hours): turbid
pH value ([1]; FeSSIF, 4 hours): 4.22
Concentration ([1]; FeSSIF, 24 hours): 1504 µg/mL
State ([1]; FeSSIF, 24 hours): turbid
pH value ([1]; FeSSIF, 24 hours): 4.21
Concentration ([1]; SGF, 4 hours): 4885 µg/mL
State ([1]; SGF, 4 hours): soluble
pH value ([1]; SGF, 4 hours): 1.77
Concentration ([1]; SGF, 24 hours): 4952 µg/mL
State ([1]; SGF, 24 hours): soluble
pH value ([1]; SGF, 24 hours): 1.84
